Read-outs that look alike come from different tables or passages of the source.
Experiments:
[1] = system: patients; details: intravenous; Prescribing Information; cited from earlier work
[2] = Plasma Tmax of meloxicam; assay type: in vivo; details: human, 30 mg, methods as disclosed herein (IV bolus)
[3] = system: patients; assay: Onset, peak and duration of analgesic effect; assay type: in vivo, human; details: meloxicam administration as disclosed herein (IV)
[4] = following oral administration, cited from earlier work

SMILES	time for the onset of pain relief [1]	Tmax [2] [min]	therapeutic window [3]	time of maximum observed plasma concentration (tmax) [4] [h]	time of maximum observed plasma concentration (tmax) ([4]; listed as oral meloxicam) [h]
O=C(c1ccccc1)c1ccc2n1CCC2C(=O)O (centres unmarked) [ketorolac]	up to 30 minutes				
Cc1cnc(NC(=O)C2=C(O)c3ccccc3S(=O)(=O)N2C)s1 [meloxicam, 4-hydroxy-2-methyl-N-(5-methyl-2-thiazolyl)-2H-1,2-benzothiazine-3-carboxamide-1,1-dioxide]		4.8 to 9.6	at least 24 hours	5 to 7	5 to 6

— patent US20210386753A1, “METHODS OF ADMINISTERING INTRAVENOUS MELOXICAM PRE-OPERATIVELY AND IN COMBINATION WITH OTHER DRUGS” (BAUDAX BIO, INC., priority 2018, published 2021)
